Earlier results, collected in patent US6448244B1, “Water soluble azoles as broad-spectrum antifungals” (Janssen Pharmaceutica N.V., priority 1998, dated 2002).

Conditions: Saksena et al., Bioorg. Med. Chem. Lett. (1995), 5(2), 127-132

CN(C)CCn1ncn(-c2ccc(N3CCN(c4ccc(OC[C@@H]5CO[C@@](Cn6cncn6)(c6ccc(F)cc6F)C5)cc4)CC3)cc2)c1=O (relative stereo) [(3R-cis)-4-[4-[4-[4-[[5-(2,4-difluorophenyl)tetrahydro-5-(1H-1,2,4-triazol-1-ylmethyl)-3-furanyl]methoxy]phenyl]-1-piperazinyl]phenyl]-2-[2-(dimethylamino)ethyl]-2,4-dihydro-3H-1,2,4-triazol-3-one]
antifungal activity compared to SCH 51048: profoundly less active
